Results taken from patent publication US12653190B2, “Heteroaryl-triazole compounds as pesticides” (Bayer Aktiengesellschaft, priority 2020, dated 2026).

What was measured:
Type in all cases: in vivo
[1] = tested on: Rhipicephalus (Boophilus) microplus larvae (strain Parkhurst, resistant against synthetic pyrethroids); assay: Rhipicephalus (Boophilus) microplus in-vitro contact test, larval cattle tick; settings: 5 μg/cm^2 (=500 g/ha), after 48 hours, read-out: efficacy (larvae dead or moribund)
Summary of the method: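 Acetone solutions coated onto glass tube walls, 900 ppm giving 5 μg/cm^2; 20–50 larvae per tube after solvent evaporation. Incubated 48 h at 27 °C, 85% relative humidity; efficacy from negative geotaxis, 100% meaning all larvae dead or moribund.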

[2] = tested on: adult engorged female ticks (Rhipicephalus microplus); assay: Rhipicephalus (Boophilus) microplus injection test; settings: 168 h, egg deposition monitored after 7 days, read-out: efficacy (infertile eggs)
Summary of the method: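 Five adult engorged female ticks each injected with 1 μL of DMSO compound solution into the abdomen, then kept in a climate chamber. Fertile egg deposition assessed after 7 days, with hatching followed to about 42 days; efficacy 100% means all eggs infertile, 0% all fertile.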

[3] = tested on: adult cat fleas (Ctenocephalides felis); assay: Ctenocephalides felis in-vitro contact test, adult cat flea; settings: 5 μg/cm^2 (=500 g/ha), after 48 hours, read-out: efficacy (fleas dead or moribund)
Summary of the method: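 Compound in acetone coated onto inner walls of glass tubes (900 ppm solution giving 5 μg/cm^2); after drying, 5-10 adult fleas added and kept at room temperature. At 48 h, fleas placed on 45-50 °C plate ≤5 min; immotile or uncoordinated ones scored dead/moribund; efficacy as % dead/moribund.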

C[C@H](NC(=O)c1cc(Cl)cc(OS(C)(=O)=O)c1)c1ncnn1-c1ccc(C#N)cn1 [Example I-46]
100%: pest or weed control at 5 µg/cm2, 5 µg/cm2 [1] | pest or weed control at 4 µg/tick ([2]; 4 μg/tick injected) | pest or weed control at 20 µg/tick ([2]; 20 μg/tick injected) | pest or weed control at 5 µg/cm2, 5 µg/cm2 [3]
